Test system: Rv3066–IR1
Assay type: binding, Mycobacterium tuberculosis
Conditions: 1 µM ethidium versus no ethidium

CC[n+]1c(-c2ccccc2)c2cc(N)ccc2c2ccc(N)cc21 [ethidium, ethidium bromide]
Weakening of the binding affinity between Rv3066 and IR1: 2.4 times

Source: paper PMC3467072 (Nucleic Acids Research, 2012)
